Experiment in all cases: AlphaScreen proximity-based integrin binding assay with TGF-b1 LAP
What all share (conditions): values given as ranges
Background: Alpha assays give light when donor and acceptor beads are brought close together.

The target of one assay is human integrin αVβ1 (Homo sapiens, UniProt P05556+P06756). An outline of the steps:
(§1)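 Purified human integrin incubated with compound, TGF-b1 LAP, biotinylated anti-LAP antibody and acceptor beads for 2 h, then streptavidin donor beads 30 min, room temperature, in 50 mM Tris-HCl pH 7.5, 0.1% BSA, 1 mM CaCl2/MgCl2. AlphaScreen signal (680 nm excitation, 520-620 nm emission); IC50 by four-parameter fit.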

A further assay has as its target human integrin αVβ6 (Homo sapiens, UniProt P06756+P18564). An outline of the steps: as §1
A further assay has as its target human integrin αVβ8 (Homo sapiens, UniProt P06756+P26012). The method in brief:
as §1

Among the data in patent US20240245682A1, “ALPHA-V-BETA-8 INTEGRIN INHIBITORS AND USES THEREOF” (Pliant Therapeutics, Inc., priority 2022, published 2024) are IC50 values, retold here.

What is called IC50 is the concentration that inhibits the measured activity by half.

Chain of human integrin αVβ6 (P06756 31-992 limits assumed): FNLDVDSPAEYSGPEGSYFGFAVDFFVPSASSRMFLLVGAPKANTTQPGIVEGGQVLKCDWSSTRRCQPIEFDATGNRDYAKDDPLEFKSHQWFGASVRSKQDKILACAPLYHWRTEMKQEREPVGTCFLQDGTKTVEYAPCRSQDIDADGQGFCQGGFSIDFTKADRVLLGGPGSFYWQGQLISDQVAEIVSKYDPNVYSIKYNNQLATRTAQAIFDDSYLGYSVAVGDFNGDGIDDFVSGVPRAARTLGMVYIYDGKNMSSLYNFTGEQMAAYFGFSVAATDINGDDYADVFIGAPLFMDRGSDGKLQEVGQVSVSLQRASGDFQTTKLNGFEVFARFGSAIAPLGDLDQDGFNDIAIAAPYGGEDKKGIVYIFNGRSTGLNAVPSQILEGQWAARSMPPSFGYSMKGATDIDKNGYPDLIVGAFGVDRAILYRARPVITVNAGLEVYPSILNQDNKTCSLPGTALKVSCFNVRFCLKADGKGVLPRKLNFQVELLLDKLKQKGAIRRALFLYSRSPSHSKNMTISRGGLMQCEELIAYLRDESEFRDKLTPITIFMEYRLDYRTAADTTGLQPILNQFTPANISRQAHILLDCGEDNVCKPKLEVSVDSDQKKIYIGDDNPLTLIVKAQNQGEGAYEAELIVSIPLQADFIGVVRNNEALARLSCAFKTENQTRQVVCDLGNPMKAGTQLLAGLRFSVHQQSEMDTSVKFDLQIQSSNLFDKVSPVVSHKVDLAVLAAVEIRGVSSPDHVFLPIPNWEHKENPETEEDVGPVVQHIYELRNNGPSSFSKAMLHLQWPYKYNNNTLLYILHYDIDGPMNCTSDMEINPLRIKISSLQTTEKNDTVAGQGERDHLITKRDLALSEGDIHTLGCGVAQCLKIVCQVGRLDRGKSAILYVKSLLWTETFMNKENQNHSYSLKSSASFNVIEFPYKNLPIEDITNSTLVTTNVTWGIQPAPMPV
Chain of human integrin αVβ6 (P18564 22-707 limits assumed): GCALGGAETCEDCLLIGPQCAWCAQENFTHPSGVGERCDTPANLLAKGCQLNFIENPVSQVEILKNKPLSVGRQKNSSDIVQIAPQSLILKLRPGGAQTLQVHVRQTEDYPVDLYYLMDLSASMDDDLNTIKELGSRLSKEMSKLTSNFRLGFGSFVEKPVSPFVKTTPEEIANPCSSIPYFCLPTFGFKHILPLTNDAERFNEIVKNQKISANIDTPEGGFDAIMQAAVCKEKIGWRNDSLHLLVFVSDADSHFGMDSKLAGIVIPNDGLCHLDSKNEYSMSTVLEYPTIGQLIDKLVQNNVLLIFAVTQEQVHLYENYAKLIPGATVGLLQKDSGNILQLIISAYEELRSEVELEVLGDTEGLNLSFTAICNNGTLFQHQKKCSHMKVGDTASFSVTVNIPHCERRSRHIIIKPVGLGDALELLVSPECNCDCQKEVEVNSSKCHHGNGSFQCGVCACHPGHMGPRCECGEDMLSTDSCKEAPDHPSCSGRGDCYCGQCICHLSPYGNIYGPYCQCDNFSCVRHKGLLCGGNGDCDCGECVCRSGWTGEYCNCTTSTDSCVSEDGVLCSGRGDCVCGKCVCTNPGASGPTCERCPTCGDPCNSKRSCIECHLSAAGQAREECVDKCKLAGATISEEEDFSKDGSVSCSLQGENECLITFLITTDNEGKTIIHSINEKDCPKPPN
Chain of human integrin αVβ8 (P06756 31-992 limits assumed): as the sequence (P06756 31-992 limits assumed) above
Chain of human integrin αVβ8 (P26012 43-684 limits assumed): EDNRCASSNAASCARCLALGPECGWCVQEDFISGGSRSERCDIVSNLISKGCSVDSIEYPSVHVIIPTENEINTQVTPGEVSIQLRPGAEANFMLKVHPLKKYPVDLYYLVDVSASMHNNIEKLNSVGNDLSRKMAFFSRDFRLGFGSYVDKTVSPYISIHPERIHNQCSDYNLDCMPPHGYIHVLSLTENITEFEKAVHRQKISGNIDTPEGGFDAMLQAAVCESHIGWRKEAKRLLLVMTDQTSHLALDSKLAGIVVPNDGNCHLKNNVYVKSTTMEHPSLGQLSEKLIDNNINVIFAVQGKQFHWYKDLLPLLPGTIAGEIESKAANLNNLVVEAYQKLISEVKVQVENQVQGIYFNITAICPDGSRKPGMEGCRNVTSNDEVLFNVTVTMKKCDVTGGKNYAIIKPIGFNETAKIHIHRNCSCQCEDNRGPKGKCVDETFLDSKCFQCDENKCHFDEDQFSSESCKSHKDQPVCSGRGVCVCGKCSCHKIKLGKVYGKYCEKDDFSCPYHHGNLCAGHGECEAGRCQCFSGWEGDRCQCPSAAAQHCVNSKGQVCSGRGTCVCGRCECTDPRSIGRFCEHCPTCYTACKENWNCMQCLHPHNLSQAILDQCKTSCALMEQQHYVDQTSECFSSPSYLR
Chain of human integrin αVβ1 (P06756 31-992 limits assumed): as the sequence (P06756 31-992 limits assumed) above
Chain of human integrin αVβ1 (P05556 21-728 limits assumed): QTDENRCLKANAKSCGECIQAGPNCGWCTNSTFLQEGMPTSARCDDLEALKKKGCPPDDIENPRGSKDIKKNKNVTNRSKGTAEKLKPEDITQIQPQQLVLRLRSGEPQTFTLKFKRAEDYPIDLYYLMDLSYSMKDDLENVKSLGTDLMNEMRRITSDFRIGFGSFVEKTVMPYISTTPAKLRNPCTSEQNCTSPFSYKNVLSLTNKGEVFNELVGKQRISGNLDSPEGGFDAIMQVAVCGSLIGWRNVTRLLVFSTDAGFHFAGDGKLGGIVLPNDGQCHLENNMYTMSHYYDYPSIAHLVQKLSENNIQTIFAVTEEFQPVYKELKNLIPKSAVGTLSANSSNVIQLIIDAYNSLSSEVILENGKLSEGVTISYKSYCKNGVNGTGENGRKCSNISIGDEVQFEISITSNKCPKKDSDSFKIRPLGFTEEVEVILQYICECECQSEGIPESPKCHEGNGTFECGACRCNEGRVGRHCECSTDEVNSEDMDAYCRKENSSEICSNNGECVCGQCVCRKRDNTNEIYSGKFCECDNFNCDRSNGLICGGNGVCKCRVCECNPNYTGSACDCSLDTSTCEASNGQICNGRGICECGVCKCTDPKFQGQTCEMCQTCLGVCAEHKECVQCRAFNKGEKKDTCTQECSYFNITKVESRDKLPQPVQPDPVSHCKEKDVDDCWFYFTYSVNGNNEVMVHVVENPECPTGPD

As for `O=C(O)[C@H](CCOCCCCc1ccc2c(n1)NCCC2)NC(=O)C1(n2c(Br)cccc2=O)CC1` [Compound 94, N-(1-(6-bromo-2-oxopyridin-1(2H)-yl)cyclopropane-1-carbonyl)-O-(4-(5,6,7,8-tetrahydro-1,8-naphthyridin-2-yl)butyl)-L-homoserine], the figures for the IC50 on human integrin αVβ1, on human integrin αVβ6 and at human integrin αVβ8 were below 50 nM, above 500 nM and below 50 nM, respectively.
For the compound `O=C(O)[C@H](CCOCCCCc1ccc2c(n1)NCCC2)NC(=O)C1(c2cncnc2)CC1` [Compound 22, N-(1-(pyrimidin-5-yl)cyclopropane-1-carbonyl)-O-(4-(5,6,7,8-tetrahydro-1,8-naphthyridin-2-yl)butyl)-L-homoserine], the IC50 is below 50 nM at human integrin αVβ1, at least 500 nM at human integrin αVβ6 and 150 to 250 nM on human integrin αVβ8.
For `CC(C)(C(=O)N[C@@H](CCOCCCCc1ccc2c(n1)NCCC2)C(=O)O)c1ccccc1` [Compound 2, N-(2-methyl-2-phenylpropanoyl)-O-(4-(5,6,7,8-tetrahydro-1,8-naphthyridin-2-yl)butyl)-L-homoserine], in that order: below 50 nM, at least 500 nM and 50 to 150 nM.
On to `Cc1cnc(C2(C(=O)N[C@@H](CCOCCCCc3ccc4c(n3)NCCC4)C(=O)O)CC2)c(Cl)c1` [Compound 36, N-(1-(3-chloro-5-methylpyridin-2-yl)cyclopropane-1-carbonyl)-O-(4-(5,6,7,8-tetrahydro-1,8-naphthyridin-2-yl)butyl)-L-homoserine], for which the IC50 at human integrin αVβ1 was below 50 nM; at human integrin αVβ6, at least 500 nM; at human integrin αVβ8, below 50 nM.
Take `[2H]C1([2H])C([2H])([2H])C1(C(=O)N[C@@H](CCOCCCCc1ccc2c(n1)NCCC2)C(=O)O)c1c(C)ncnc1Cl` [Compound 104, N-(1-(4-chloro-6-methylpyrimidin-5-yl)cyclopropane-1-carbonyl-2,2,3,3-d4)-O-(4-(5,6,7,8-tetrahydro-1,8-naphthyridin-2-yl)butyl)-L-homoserine]: the IC50 is below 50 nM on human integrin αVβ1, above 500 nM on human integrin αVβ6 and below 50 nM at human integrin αVβ8.
As to `CC(C)(C(=O)NC(CCOCCCCc1ccc2c(n1)NCCC2)C(=O)O)c1ccccc1` (stereo not drawn) [Compound 1, N-(2-methyl-2-phenylpropanoyl)-O-(4-(5,6,7,8-tetrahydro-1,8-naphthyridin-2-yl)butyl)homoserine], the IC50 was below 50 nM at human integrin αVβ1, at least 500 nM on human integrin αVβ6 and 50 to 150 nM at human integrin αVβ8.
Take `O=C(O)[C@H](CCOCCCCc1ccc2c(n1)NCCC2)NC(=O)C1(n2c(F)cccc2=O)CC1` [Compound 93, N-(1-(6-fluoro-2-oxopyridin-1(2H)-yl)cyclopropane-1-carbonyl)-O-(4-(5,6,7,8-tetrahydro-1,8-naphthyridin-2-yl)butyl)-L-homoserine]: the IC50 at human integrin αVβ1 is below 50 nM; at human integrin αVβ6, above 500 nM; at human integrin αVβ8, below 50 nM.
On to `N#Cc1cccnc1C1(C(=O)N[C@@H](CCOCCCCc2ccc3c(n2)NCCC3)C(=O)O)CC1` [Compound 32, N-(1-(3-cyanopyridin-2-yl)cyclopropane-1-carbonyl)-O-(4-(5,6,7,8-tetrahydro-1,8-naphthyridin-2-yl)butyl)-L-homoserine], for which the IC50 is below 50 nM on human integrin αVβ1, at least 500 nM at human integrin αVβ6 and below 50 nM on human integrin αVβ8.
In the case of `O=C(O)[C@H](CCOCCCCc1ccc2c(n1)NCCC2)NC(=O)C1(c2ccc(F)cc2)CCOCC1` [Compound 85, N-(4-(4-fluorophenyl)tetrahydro-2H-pyran-4-carbonyl)-O-(4-(5,6,7,8-tetrahydro-1,8-naphthyridin-2-yl)butyl)-L-homoserine], the IC50 at human integrin αVβ1 was below 50 nM; on human integrin αVβ6 it was above 500 nM; at human integrin αVβ8 it was 50 to 150 nM.
For `Cn1cc(C#N)c(C2(C(=O)N[C@@H](CCOCCCCc3ccc4c(n3)NCCC4)C(=O)O)CC2)n1` [Compound 75, N-(1-(4-cyano-1-methyl-1H-pyrazol-3-yl)cyclopropane-1-carbonyl)-O-(4-(5,6,7,8-tetrahydro-1,8-naphthyridin-2-yl)butyl)-L-homoserine] the same measures were below 50 nM, at least 500 nM and below 50 nM.
As for `O=C(O)[C@H](CCOCCCCc1ccc2c(n1)NCCC2)NC(=O)C1(n2ccnc2C(F)(F)F)CC1` [Compound 70, O-(4-(5,6,7,8-tetrahydro-1,8-naphthyridin-2-yl)butyl)-N-(1-(2-(trifluoromethyl)-1H-imidazol-1-yl)cyclopropane-1-carbonyl)-L-homoserine], the IC50 at human integrin αVβ1 is below 50 nM; on human integrin αVβ6 it was at least 500 nM; on human integrin αVβ8 it was below 50 nM.
Take `Cn1ncc(Cl)c1C1(C(=O)N[C@@H](CCOCCCCc2ccc3c(n2)NCCC3)C(=O)O)CC1` [Compound 51, N-(1-(4-chloro-1-methyl-1H-pyrazol-5-yl)cyclopropane-1-carbonyl)-O-(4-(5,6,7,8-tetrahydro-1,8-naphthyridin-2-yl)butyl)-L-homoserine]: the values for the IC50 at human integrin αVβ1, at human integrin αVβ6 and at human integrin αVβ8 were below 50 nM, at least 500 nM and below 50 nM, respectively.
`O=C(O)[C@H](CCOCCCCc1ccc2c(n1)NCCC2)NC(=O)C1(c2ncccc2C2CC2)CC1` [Compound 58, N-(1-(3-cyclopropylpyridin-2-yl)cyclopropane-1-carbonyl)-O-(4-(5,6,7,8-tetrahydro-1,8-naphthyridin-2-yl)butyl)-L-homoserine]: the IC50 on human integrin αVβ1 was below 50 nM; at human integrin αVβ6 it was at least 500 nM; at human integrin αVβ8, 150 to 250 nM.
For `COc1cccc(C2(C(=O)N[C@@H](CCOCCCCc3ccc4c(n3)NCCC4)C(=O)O)CC2)n1` [Compound 18, N-(1-(6-methoxypyridin-2-yl)cyclopropane-1-carbonyl)-O-(4-(5,6,7,8-tetrahydro-1,8-naphthyridin-2-yl)butyl)-L-homoserine], in that order: 50 to 150 nM, at least 500 nM and below 50 nM.
Turning to `O=C(O)[C@H](CCOCCCCc1ccc2c(n1)NCCC2)NC(=O)C1(c2ncc(F)cc2Cl)CC1` [Compound 14, N-(1-(3-chloro-5-fluoropyridin-2-yl)cyclopropane-1-carbonyl)-O-(4-(5,6,7,8-tetrahydro-1,8-naphthyridin-2-yl)butyl)-L-homoserine], the IC50 at human integrin αVβ1 is below 50 nM; on human integrin αVβ6, at least 500 nM; on human integrin αVβ8, below 50 nM.
On to `COc1cccc(=O)n1C1(C(=O)N[C@@H](CCOCCCCc2ccc3c(n2)NCCC3)C(=O)O)CC1` [Compound 92, N-(1-(6-methoxy-2-oxopyridin-1(2H)-yl)cyclopropane-1-carbonyl)-O-(4-(5,6,7,8-tetrahydro-1,8-naphthyridin-2-yl)butyl)-L-homoserine], for which the IC50 on human integrin αVβ1 was 50 to 150 nM; at human integrin αVβ6, above 500 nM; at human integrin αVβ8, 50 to 150 nM.
As for `O=C(N[C@@H](CCOCCCCc1ccc2c(n1)NCCC2)C(=O)O)c1ccnn1-c1ccccc1` [Compound 99, N-(1-phenyl-1H-pyrazole-5-carbonyl)-O-(4-(5,6,7,8-tetrahydro-1,8-naphthyridin-2-yl)butyl)-L-homoserine], the IC50 at human integrin αVβ1 was below 50 nM; at human integrin αVβ6, below 50 nM; at human integrin αVβ8 it was 50 to 150 nM.
With `O=C(O)[C@H](CCOCCCCc1ccc2c(n1)NCCC2)NC(=O)C1(C(F)(F)F)CCOCC1` [Compound 100, O-(4-(5,6,7,8-tetrahydro-1,8-naphthyridin-2-yl)butyl)-N-(4-(trifluoromethyl)tetrahydro-2H-pyran-4-carbonyl)-L-homoserine], the IC50 was below 50 nM on human integrin αVβ1, 50 to 150 nM on human integrin αVβ6 and below 50 nM on human integrin αVβ8.
For `O=C(O)[C@H](CCOCCCCc1ccc2c(n1)NCCC2)NC(=O)C1(c2[nH]ncc2Cl)CC1` [Compound 71, N-(1-(4-chloro-1H-pyrazol-5-yl)cyclopropane-1-carbonyl)-O-(4-(5,6,7,8-tetrahydro-1,8-naphthyridin-2-yl)butyl)-L-homoserine], the half-maximal inhibitory concentration (IC50) is below 50 nM on human integrin αVβ1, at least 500 nM on human integrin αVβ6 and below 50 nM at human integrin αVβ8.
With `Cn1cnc(Cl)c1C1(C(=O)N[C@@H](CCOCCCCc2ccc3c(n2)NCCC3)C(=O)O)CC1` [Compound 80, N-(1-(4-chloro-1-methyl-1H-imidazol-5-yl)cyclopropane-1-carbonyl)-O-(4-(5,6,7,8-tetrahydro-1,8-naphthyridin-2-yl)butyl)-L-homoserine], the IC50 is below 50 nM at human integrin αVβ1, at least 500 nM on human integrin αVβ6 and below 50 nM on human integrin αVβ8.
Turning to `NC(=O)c1cccc(F)c1C1(C(=O)N[C@@H](CCOCCCCc2ccc3c(n2)NCCC3)C(=O)O)CC1` [Compound 95, N-(1-(2-carbamoyl-6-fluorophenyl)cyclopropane-1-carbonyl)-O-(4-(5,6,7,8-tetrahydro-1,8-naphthyridin-2-yl)butyl)-L-homoserine], the IC50 at human integrin αVβ1 was 50 to 150 nM; at human integrin αVβ6 it was above 500 nM; at human integrin αVβ8 it was 50 to 150 nM.
As to `COc1ccc(Cl)c(C2(C(=O)N[C@@H](CCOCCCCc3ccc4c(n3)NCCC4)C(=O)O)CC2)n1` [Compound 26, N-(1-(3-chloro-6-methoxypyridin-2-yl)cyclopropane-1-carbonyl)-O-(4-(5,6,7,8-tetrahydro-1,8-naphthyridin-2-yl)butyl)-L-homoserine], the results for the IC50 at human integrin αVβ1, on human integrin αVβ6 and on human integrin αVβ8 were below 50 nM, 250 to 500 nM and below 50 nM, respectively.
Regarding `COc1ncnc(C)c1C1(C(=O)N[C@@H](CCOCCCCc2ccc3c(n2)NCCC3)C(=O)O)CC1` [Compound 61, N-(1-(4-methoxy-6-methylpyrimidin-5-yl)cyclopropane-1-carbonyl)-O-(4-(5,6,7,8-tetrahydro-1,8-naphthyridin-2-yl)butyl)-L-homoserine], the IC50 was below 50 nM on human integrin αVβ1, at least 500 nM at human integrin αVβ6 and below 50 nM at human integrin αVβ8.
